Experimental data published in patent US5126258A (priority 1988, dated 1992).

Columns and labels:
44A2 = assay: Hydrolysis of reactant ligands by receptor 44A2; type: biochemical, mouse; design: key to hydrolysis by 44A2, symbol: --: No hydrolysis observed; settings: pH 8.0; 19: 2/5 uM, 21: 5/10 uM receptor/ligand
Method: (§1) ^1 Preliminary initial hydrolyses shown as the percentage of admixed
(§2) reactant ligand consumed for catalyzed and spontaneous hydrolyses. "--" =
(§3) No hydrolysis observed. "NT" = Not tried. All reactions were carried out
(§4) at pH 8.0 in a 50 mM phosphate buffer unless otherwise noted. Hydrolytic
(§5) percentages were determined by HPLC using a Hitachi model 655A12 liquid
(§6) chromatograph with a C18 Vydac 201TP54 column, except as noted below.
(§7) Mixtures of acetonitrile a nd water containing 0.1 percent trichloroaceti
(§8) acid [28:72-50:50 (v/v)] were used as elutant. Hydrolyses of Compounds 5
(§9) and 20 were assayed using fluorescence data.
(§10) ^2 Concentrations of receptor molecules (Rec.) and reactant ligands
(§11) (Lig.) in micromolar units, presuming a molecular weight of 150,000
(§12) daltons for each receptor molecule.
(§13) ^3 Reactant ligand (Lig.) used as substrate.
(§14) ^4 Time in hours that the reaction was permitted to take place.
(§15) ^5 Spontaneous hydrolytic percentages for the time period indicated.
(§16) ^6 Reaction carried out at pH 7.2 in a 50 mM phosphate buffer.

[1] = Spontaneous (uncatalyzed, background) hydrolysis; type: physicochemical; design: key to Spon. (spontaneous hydrolysis), symbol: --: No hydrolysis observed; settings: pH 8.0
Method: The practical range of pH for the assay is limited by the rapid spontaneous rate of hydrolysis of an ester Compound 5 above pH 8.0. Initially, the ester was used at a concentration that was about four-fold greater than that of the protein, and the mixture was incubated at pH 7.2 for 10 minutes. Any change in fluorescence above background was noted.
The lack of spectroscopic distinction between such esters and their hydrolysis products recommended a chromatographic analysis of the process. Referring to FIG. 3, a mixture of Compound 7 (5 uM) and the monoclonal antibody from hybridoma P3 6D4 (0.1 uM) in phosphate buffer (50 mM, pH 8.0) was analyzed over time by high performance liquid chromatography (HPLC). The accelerated hydrolysis of the ester was apparent from the decrease of its peak and the concurrent increase in two new peaks that correspond with the expected products. Under these conditions, the ester is completely consumed in 60-80 minutes during which time the background rate accounts for about 12 to 16 percent hydrolysis. The chromatographic profile is the same as that produced by treatment with hog liver esterase.
^c The rate constants were determined spectrophotometrically (at 245
nm) by measuring initial rates at five concentrations of ester.
as §1, §2, §3, §4, §5, §6, §7, §8, §9, §15
Reaction kinetics were studied using three reactant ligands as substrates for monoclonal receptors 37G2 and 22F5. Data from initial rates were consistent with Michaelis-Menten reaction mechanism for a usual enzyme-substrate system. Initial rates were followed using at 271 nm using a U.V.-visible spectorphotometer for Compound 17, and a fluorescence spectrometer for Compounds 5 and 20, using an excitation wavelength of 355 nm and an emission wavelength of 455 nm for both compounds.

13E10 = assay: Hydrolysis of reactant ligands by receptor 13E10; type: biochemical, mouse; design: key to hydrolysis by 13E10, symbol: --: No hydrolysis observed; settings: pH 8.0; 19: 2/5 uM, 21: 5/10 uM receptor/ligand
Method: as §1, §2, §3, §4, §5, §6, §7, §8, §9, §10, §11, §12, §13, §14, §15, §16

7E5 = assay: Hydrolysis of reactant ligands by receptor 7E5; type: biochemical, mouse; design: key to hydrolysis by 7E5, symbol: --: No hydrolysis observed; settings: pH 8.0; 19: 2/5 uM, 21: 5/10 uM receptor/ligand
Method: as §1, §2, §3, §4, §5, §6, §7, §8, §9, §10, §11, §12, §13, §14, §15, §16

17G8 = assay: Hydrolysis of reactant ligands by receptor 17G8; type: biochemical, mouse; design: key to hydrolysis by 17G8, symbol: --: No hydrolysis observed; settings: pH 8.0; 19: 2/5 uM, 21: 5/10 uM receptor/ligand
Method: as §1, §2, §3, §4, §5, §6, §7, §8, §9, §10, §11, §12, §13, §14, §15, §16

1209 = assay: Hydrolysis of reactant ligands by receptor 12C9 (column head prints 1209); type: biochemical, mouse; design: key to hydrolysis by 1209, symbol: --: No hydrolysis observed; settings: pH 8.0; 19: 2/5 uM, 21: 5/10 uM receptor/ligand
Method: as §1, §2, §3, §4, §5, §6, §7, §8, §9, §10, §11, §12, §13, §14, §15, §16

37G2 = assay: Hydrolysis of reactant ligands by receptor 37G2; type: biochemical, mouse; design: key to hydrolysis by 37G2, symbol: --: No hydrolysis observed; settings: pH 8.0; 19: 2/5 uM, 21: 5/10 uM receptor/ligand
Method: as §1, §2, §3, §4, §5, §6, §7, §8, §9, §10, §11, §12, §13, §14, §15, §16

21G2 = assay: Hydrolysis of reactant ligands by receptor 21G2; type: biochemical, mouse; design: key to hydrolysis by 21G2, symbol: --: No hydrolysis observed; settings: pH 8.0; 19: 2/5 uM, 21: 5/10 uM receptor/ligand
Method: as §1, §2, §3, §4, §5, §6, §7, §8, §9, §10, §11, §12, §13, §14, §15, §16

22F5 = assay: Hydrolysis of reactant ligands by receptor 22F5; type: biochemical, mouse; design: key to hydrolysis by 22F5, symbol: --: No hydrolysis observed; settings: pH 8.0; 19: 2/5 uM, 21: 5/10 uM receptor/ligand
Method: as §1, §2, §3, §4, §5, §6, §7, §8, §9, §10, §11, §12, §13, §14, §15, §16

[2] = tested on: eight monoclonal receptors 21G2, 7E5, 37G2, 13E10, 12C9, 44A2, 17G8 and 22F5; assay: Catalyzed hydrolysis of reactant ligands by the eight QPN1 monoclonal receptors, summary; type: biochemical, mouse; settings: pH 8.0
Method: Mice were hyperimmunized with the Compound 13-KLH conjugate over a three to four week time period. Sera were assayed in an ELISA using a Compound 13-BSA conjugate bound to microtiter plate wells as the solid-phase antigen. Cloned hybridomas were also screened using that ELISA assay.
Each of those catalyses could be inhibited by an appropriate analog-ligand. Thus, a relatively high percentage of induced monoclonal receptors was capable of catalyzing an esterolytic reaction. The reason for this relatively high percentage of useful receptors being induced is unknown, but could be due to the presence of phosphonamidate group nitrogen atom, as compared to a phosphonate oxygen atom, or to the quinoline nucleus of the analog-ligand. Those eight catalytic monoclonal receptors and the hybridomas that secrete them are identified by the laboratory designations "QPN1 7E5", "QPN1 12C9", "QPN1 13E10", "QPN1 17G8", "QPN1 21G2", "QPN1 22F5", "QPN1 37G2" and QPN1 44A2. The prefix "QPNI" is sometimes omitted herein when discussing these hybridomas and receptors.
Amide cleavage for Compounds 14 and 15 was assayed by analyzing for the production of free aminoquinaldine or aminonaphthalene by measuring the increase in the azo dye that results from derivatizing the free aminoquinaldine or aminonapthalene with a diazotization reagent.
Catalysis reactions were conducted by preparing a reaction admixture of 100 microliters (ul) total volume containing 5 micromolar (uM) monoclonal antibody, 50-75 uM amide reactant ligand substrate and a buffer described hereinafter. The buffer included in the above admixture varied depending upon the pH utilized as follows: pH 5, 10 […] sodium acetate, 10 mM sodium chloride; pH 7.2, 10 mM sodium phosphate, 0.15 molar (M) sodium chloride; pH 8.0; 50 mM sodium phosphate. The amide-containing substrates screened in this assay were added to the above admixture in 1 ul of a 100-fold concentrated stock solution of dimethyl formamide (DMF). Monoclonal antibody was added to the above admixture from a concentrated stock solution. The resulting admixture was placed into the well of a 96 well flat bottom microtiter plate (Costar, Cambridge, Mass.) and maintained in a moist vapor environment chamber at 23 degrees C. The production of aminoquinaldine or aminonaphthalene was then assayed as described below after 2,3,5, or 6 days.
The aminoquinaldine or aminonapthalene product produced by the catalyzed reaction was measured by first admixing 20 ul of 5M HCl, 80 ul acetone and 10 ul 0.5% (w/v) sodium nitrite to the reaction admixture to form a second admixture and maintaining that second admixture for 3 minutes at room temperature. Thereafter, 10 ul 2.5% (w/v) ammonium sulfamate was added to form a third admixture that was maintained for 2 minutes at room temperature. A still further 10 ul of 0.5% (w/v) N-(1-napthyl)ethylenediamine dihydrochloride was added to form a fourth admixture that was then maintained for 15 minutes at room temperature. Thereafter the resulting azo dye present in the fourth admixture was measured by absorbance spectroscopy at 540 nanometers (nm) for aminoquinaldine using a Model EL 309 Automated Microplate Reader (Bio-Tek Instruments, Winooski, Vt.).

CC(=O)Nc1ccc(CC(=O)Nc2cccc3ccc(C)nc23)cc1 [Compound 14]
hydrolysis by 44A2, symbol (44A2): -- | Spon. (spontaneous hydrolysis), symbol [1]: -- | hydrolysis by 13E10, symbol (13E10): -- | hydrolysis by 7E5, symbol (7E5): -- | hydrolysis by 17G8, symbol (17G8): -- | hydrolysis by 1209, symbol 1209: -- | hydrolysis by 37G2, symbol (37G2): -- | hydrolysis by 21G2, symbol (21G2): -- | hydrolysis by 22F5, symbol (22F5): -- | receptors (of eight) that catalyzed hydrolysis of the compound [2]: none of the receptors catalyzed hydrolysis
